Calls of active or inactive are those of the source. No rule for the calls is given here.
System: GENE-TOX genotoxicity assays, various organisms and cells
Test: GENE-TOX mutagenicity studies
Details: for call: Assay Type: In vivo carcinogenicity studies
[1] = Species/Cell Type: Escherichia coli WP2 UVRA, Assay Type: Tryptophan reverse gene mutation, Assay Code: WPU-, Evaluation Type: Evaluation A (Pre-1980)
[2] = Species/Cell Type: Escherichia coli polA (W3119 vs P3478), Assay Type: Rec-assay, DNA effects (bacterial DNA repair), Assay Code: RE1+, Evaluation Type: Evaluation A (Pre-1980)
[3] = Species/Cell Type: Mouse, Sex: Male, Assay Type: Sperm morphology, Assay Code: SPI-, Evaluation Type: Evaluation A (Pre-1980)
[4] = Species/Cell Type: Nonhuman, Assay Type: Sister-chromatid exchange (SCE) in vitro, Assay Code: SC2T, Evaluation Type: Evaluation B (Post-1980)
[5] = Species/Cell Type: Salmonella typhimurium (one or more of the five standard strains: TA98, TA100, TA1535, TA1537, and TA1538), Assay Type: Histidine reverse gene mutation, Ames assay, Assay Code: SALT, Evaluation Type: Evaluation A (Pre-1980)
[6] = Species/Cell Type: Drosophila melanogaster, Assay Type: Sex-linked recessive lethal gene mutation, Assay Code: SRLT, Evaluation Type: Evaluation A (Pre-1980)
[7] = Species/Cell Type: Salmonella typhimurium (one or more of the five standard strains: TA98, TA100, TA1535, TA1537, and TA1538), Assay Type: Histidine reverse gene mutation, Ames assay, Assay Code: SAL+, Evaluation Type: Evaluation A (Pre-1980)
[8] = Species/Cell Type: Mammalian polychromatic erythrocytes, Assay Type: Micronucleus test, chromosome aberrations, Assay Code: MNTT, Evaluation Type: Evaluation A (Pre-1980)
[9] = Species/Cell Type: Salmonella typhimurium (one or more of the five standard strains: TA98, TA100, TA1535, TA1537, and TA1538), Assay Type: Histidine reverse gene mutation, Ames assay, Assay Code: SAL+*, Activation: With metabolic activation, Evaluation Type: Evaluation A (Pre-1980)
[10] = Species/Cell Type: Salmonella typhimurium, Assay Type: Forward and reverse gene mutation, host-mediated assay, Assay Code: HMA-, Evaluation Type: Evaluation A (Pre-1980)
[11] = Species/Cell Type: Fischer rat embryo (RLV/1706) cells, Assay Type: Cell transformation, viral enhanced, Assay Code: CTR+, Evaluation Type: Evaluation A (Pre-1980)
[12] = Species/Cell Type: Nonhuman, Assay Code: CCG+, Evaluation Type: Evaluation A (Pre-1980)
[13] = Species/Cell Type: Saccharomyces cerevisiae, Assay Type: Mitotic recombination or gene conversion, Assay Code: YEH-, Evaluation Type: Evaluation A (Pre-1980)

With `Cc1ccc2c(C)c(C)[nH]c2c1` the mutagenic call (Species/Cell Type: Human lymphocytes, Assay Type: Sister-chromatid exchange (SCE) in vitro, Assay Code: SCL+, Evaluation Type: Evaluation B (Post-1980)) was “active; positive” and the mutagenic call (Species/Cell Type: Human, Assay Type: Sister-chromatid exchange (SCE) in vitro, Assay Code: SC1+, Evaluation Type: Evaluation B (Post-1980)) was “active; positive”.
`COc1cc(CNC(=O)CCCC/C=C/C(C)C)ccc1O` was tested, and the mutagenic call (Species/Cell Type: Mammalian polychromatic erythrocytes, Assay Type: Micronucleus test, chromosome aberrations, Assay Code: MNT+U, Dose Response: Unconfirmed positive response, Evaluation Type: Evaluation B (Post-1980)) was “active; positive”.
In the case of `NC(=O)N/N=C/c1ccco1`, the mutagenic call [1] is reported as “inactive; negative”.
With `CCOCC` the mutagenic call (Species/Cell Type: Aspergillus nidulans, Assay Type: Forward gene mutation, Assay Code: ASF-, Evaluation Type: Evaluation A (Pre-1980)) was “inactive; negative”, the mutagenic call [2] was “active; positive” and the mutagenic call [3] was “inactive; negative”. The mutagenic call [4] was “no conclusion” and the mutagenic call [5] was “no conclusion”.
In the case of `COc1cccc(C2CO2)c1` (stereo unspecified), the mutagenic call [1] is reported as “inactive; negative”.
In the case of `ONc1ccc2c(c1)Cc1ccccc1-2`, the mutagenic call [6] is reported as “no conclusion”, the mutagenic call [2] is reported as “active; positive” and the mutagenic call [7] is reported as “active; positive”.
For `CCCSP(=S)(OCC)Oc1ccc(SC)cc1` (stereo unspecified), the mutagenic call [4] was “no conclusion”.
With `Cc1cc2nc3ccc(N(C)C)cc3nc2cc1NC(=O)CN(C)N=O` the mutagenic call [5] was “no conclusion”.
`C[C@@H]1Cc2c(Cl)cc(C(=O)NC(Cc3ccccc3)C(=O)O)c(O)c2C(=O)O1` (stereo partly specified) was tested, and the mutagenic call (Species/Cell Type: Nonhuman, Assay Type: Sister-chromatid exchange (SCE) in vivo, Assay Code: SC3-, Evaluation Type: Evaluation B (Post-1980)) was “inactive; negative”.
With `CN1CCC[C@H]1c1cccnc1` the mutagenic call (Species/Cell Type: Neurospora crassa, Assay Type: Aneuploidy, chromosome aberrations, Assay Code: NEN-, Evaluation Type: Evaluation A (Pre-1980)) was “inactive; negative”, the mutagenic call (Species/Cell Type: Nonhuman, Assay Type: Sister-chromatid exchange (SCE) in vitro, Assay Code: SC2+, Evaluation Type: Evaluation B (Post-1980)) was “active; positive” and the mutagenic call (Species/Cell Type: Salmonella typhimurium (one or more of the five standard strains: TA98, TA100, TA1535, TA1537, and TA1538), Assay Type: Histidine reverse gene mutation, Ames assay, Assay Code: SAL-, Evaluation Type: Evaluation A (Pre-1980)) was “inactive; negative”.
For `OCCI`, the mutagenic call [2] was “active; positive”, the mutagenic call [3] was “inactive; negative” and the mutagenic call [7] was “active; positive”.
For `Cn1cnc2ncn(C)c2c1=O`, the mutagenic call (Species/Cell Type: Allium cepa, Assay Type: Chromosome aberrations, Assay Code: ALC-, Evaluation Type: Evaluation A (Pre-1980)) was “inactive; negative”.
`O=S(=O)(O)NC1CCCCC1` was tested, and the mutagenic call (Species/Cell Type: Drosophila melanogaster, Assay Type: Aneuploidy, sex chromosome gain, chromosome aberrations, Assay Code: DAG-F, Evaluation Type: Evaluation A (Pre-1980)) was “inactive; negative”, the mutagenic call (Species/Cell Type: Drosophila melanogaster, Assay Type: Aneuploidy, whole sex chromosome loss, chromosome aberrations, Assay Code: DAC-F, Evaluation Type: Evaluation A (Pre-1980)) was “inactive; negative” and the mutagenic call [6] was “no conclusion”. The mutagenic call (Species/Cell Type: Mammalian germ cells, Sex: Male, Assay Type: Chromosome aberrations in vivo, Assay Code: CY9T, Evaluation Type: Evaluation A (Pre-1980)) was “no conclusion”, the mutagenic call [8] was “no conclusion” and the mutagenic call [3] was “inactive; negative”. The mutagenic call (Species/Cell Type: Nonhuman bone marrow, Assay Type: Chromosome aberrations, in vivo, Assay Code: CY#T, Evaluation Type: Evaluation A (Pre-1980)) was “no conclusion”, the mutagenic call (Species/Cell Type: Rodents, Sex: Female, Assay Type: Dominant lethal test, Assay Code: DLTF-, Evaluation Type: Evaluation A (Pre-1980)) was “inactive; negative” and the mutagenic call (Species/Cell Type: Rodents, Sex: Male, Assay Type: Dominant lethal test, Assay Code: DLT-, Evaluation Type: Evaluation A (Pre-1980)) was “inactive; negative”. For the same molecule, the mutagenic call (Species/Cell Type: Salmonella typhimurium, Serratia marcesens, Assay Type: Forward and reverse gene mutation, host-mediated assay, Assay Code: HM2-, Evaluation Type: Evaluation A (Pre-1980)) was “inactive; negative”.
With `CCCCN(CC(O)CCO)N=O` (stereo unspecified) the mutagenic call [9] was “active; positive”.
With `OC1C=Cc2cc3ccc4cccc5ccc(c2C1O)c3c45` (stereo unspecified) the mutagenic call (Species/Cell Type: Mouse prostate cells, Assay Type: Cell transformation, Assay Code: CTM+, Evaluation Type: Evaluation A (Pre-1980)) was “active; positive”.
With `CCN(N=O)C(C)(C)C` the mutagenic call [6] was “no conclusion”.
`COc1ccc(/C=N/NC(=O)c2ccncc2)c(C(=O)O)c1OC` was tested, and the mutagenic call [10] was “inactive; negative”.
With `CC(=O)OCN(C)N=O` the mutagenic call (Species/Cell Type: Salmonella typhimurium, Assay Type: Forward and reverse gene mutation, host-mediated assay, Assay Code: HMA+, Evaluation Type: Evaluation A (Pre-1980)) was “active; positive”.
With `ClCC1OC1CCl` (stereo unspecified) the mutagenic call (Species/Cell Type: Drosophila melanogaster, Assay Type: Sex-linked recessive lethal gene mutation, Assay Code: SRL+, Evaluation Type: Evaluation A (Pre-1980)) was “active; positive”.
`Cc1ccccc1N=Nc1c(N)ccc2ccccc12` was tested, and the mutagenic call (Species/Cell Type: Bacillus subtilis (H17 vs M45T), Assay Type: Rec-assay, spot test, DNA effects (bacterial DNA repair), Assay Code: REXT, Evaluation Type: Evaluation A (Pre-1980)) was “no conclusion”.
With `CCOS(=O)(=O)c1ccc(C)cc1` the mutagenic call [2] was “active; positive”, the mutagenic call (Species/Cell Type: Human diploid fibroblasts, Assay Type: Unscheduled DNA synthesis (UDS) in vitro, DNA effects, Assay Code: UDH+, Evaluation Type: Evaluation A (Pre-1980)) was “active; positive” and the mutagenic call (Species/Cell Type: Saccharomyces cerevisiae, Assay Type: Mitotic recombination or gene conversion, Assay Code: YEH+, Evaluation Type: Evaluation A (Pre-1980)) was “active; positive”. For the same molecule, the mutagenic call [7] was “active; positive”, the mutagenic call [10] was “inactive; negative” and the mutagenic call (Species/Cell Type: Syrian hamster embryo (SHE) cells, Assay Type: Cell transformation, clonal assay, Assay Code: CTC+, Evaluation Type: Evaluation A (Pre-1980)) was “active; positive”.
`[CH3][Hg][CH3]` was tested, and the mutagenic call (Species/Cell Type: Mammalian oocytes or early embryo, Assay Type: Chromosome aberrations in vivo, Assay Code: CYO-, Evaluation Type: Evaluation A (Pre-1980)) was “inactive; negative” and the mutagenic call (Species/Cell Type: Rodents, Sex: Male, Assay Type: Dominant lethal test, Assay Code: DLTT, Evaluation Type: Evaluation A (Pre-1980)) was “no conclusion”.
For `O=CNc1nc(-c2ccc([N+](=O)[O-])[nH]2)cs1`, the mutagenic call [5] was “no conclusion”.
For `CCCCN(CCC(C)O)N=O` (stereo unspecified), the mutagenic call [7] was “active; positive”.
In the case of `Cc1ccccc1N`, the mutagenic call [2] is reported as “active; positive”, the mutagenic call [11] is reported as “active; positive” and the mutagenic call [8] is reported as “no conclusion”. For the same molecule, the mutagenic call [3] was “inactive; negative”, the call [12] was “active; positive” and the mutagenic call (Species/Cell Type: Nonhuman, Assay Type: Sister-chromatid exchange (SCE) in vitro, Assay Code: SC2+D, Dose Response: With dose response, Evaluation Type: Evaluation B (Post-1980)) was “active; positive”. The mutagenic call (Species/Cell Type: Nonhuman, Assay Type: Sister-chromatid exchange (SCE) in vivo, Assay Code: SC3+, Evaluation Type: Evaluation B (Post-1980)) was “active; positive”, the mutagenic call [13] was “inactive; negative” and the mutagenic call [5] was “no conclusion”.
For `C#CC(C)N(C(=O)CCl)c1ccccc1` (stereo unspecified), the mutagenic call (Species/Cell Type: Saccharomyces cerevisiae, Assay Type: Mitotic recombination or gene conversion, Assay Code: YEC-, Evaluation Type: Evaluation A (Pre-1980)) was “inactive; negative”.
With `COc1ccc(C)cc1N` the call [12] was “active; positive”.
In the case of `CC(=O)Nc1cccc2c1-c1ccccc1C2`, the mutagenic call (Species/Cell Type: Escherichia coli polA (W3110 vs P3478), Assay Type: Rec-assay, DNA effects (bacterial DNA repair), Assay Code: RE2-, Evaluation Type: Evaluation A (Pre-1980)) is reported as “inactive; negative”, the mutagenic call (Species/Cell Type: Escherichia coli polA (W3119 vs P3478), Assay Type: Rec-assay, DNA effects (bacterial DNA repair), Assay Code: RE1T, Evaluation Type: Evaluation A (Pre-1980)) is reported as “no conclusion” and the mutagenic call [11] is reported as “active; positive”. For the same molecule, the mutagenic call [8] was “no conclusion”, the mutagenic call (Species/Cell Type: Mouse (BALB/c-3T3) cells, Assay Type: Cell transformation, Assay Code: CTB+D, Dose Response: With dose response, Evaluation Type: Evaluation A (Pre-1980)) was “active; positive” and the mutagenic call (Species/Cell Type: Mouse lymphoma (L5178Y) cells, Assay Type: Forward gene mutation at the thymidine kinase (TK) locus, chromosome aberrations, Assay Code: L51+*, Activation: With metabolic activation, Evaluation Type: Evaluation A (Pre-1980)) was “active; positive”. The call (Species/Cell Type: Nonhuman, Assay Code: CCGT, Evaluation Type: Evaluation A (Pre-1980)) was “no conclusion”, the mutagenic call [4] was “no conclusion” and the mutagenic call (Species/Cell Type: Rat primary hepatocytes, Assay Type: Unscheduled DNA synthesis (UDS) in vitro, DNA effects, Assay Code: UDP-, Evaluation Type: Evaluation A (Pre-1980)) was “inactive; negative”. For the same molecule, the mutagenic call [13] was “inactive; negative”, the mutagenic call [9] was “active; positive” and the mutagenic call [10] was “inactive; negative”. For the same molecule, the mutagenic call (Species/Cell Type: Syrian hamster embryo (SHE) cells, Assay Type: Cell transformation, clonal assay, Assay Code: CTC-, Evaluation Type: Evaluation A (Pre-1980)) was “inactive; negative”.
With `CCCCN(CCC(=O)O)N=O` the mutagenic call [7] was “active; positive”.
For `CC(=O)Nc1nc(-c2ccc([N+](=O)[O-])s2)cs1`, the mutagenic call [5] was “no conclusion”.

Reference: PubChem BioAssay AID1259408 (Genetic Toxicology Data Bank (GENE-TOX), 2018)
